# Laboratory results published in ChEMBL document CHEMBL4130491, “Baicalin and its metabolites suppresses gluconeogenesis through activation of AMPK or AKT in insulin resistant HepG-2 cells” (Eur J Med Chem, 2017).
# Activity calls are given as the source filed them. The rule behind the calls is not given here.
# How the values were obtained:
# [1] = biological target: RAC-alpha serine/threonine-protein kinase (Homo sapiens) (UniProt P31749); experiment: Activation of AKT in palmitate-induced insulin-resistant human HepG2 cells assessed as increase in AKT phosphorylation at 12.5 uM incubated for 24 hrs by Western blot method; format: cell-based
# Sequence of RAC-alpha serine/threonine-protein kinase (Homo sapiens) (P31749 whole entry): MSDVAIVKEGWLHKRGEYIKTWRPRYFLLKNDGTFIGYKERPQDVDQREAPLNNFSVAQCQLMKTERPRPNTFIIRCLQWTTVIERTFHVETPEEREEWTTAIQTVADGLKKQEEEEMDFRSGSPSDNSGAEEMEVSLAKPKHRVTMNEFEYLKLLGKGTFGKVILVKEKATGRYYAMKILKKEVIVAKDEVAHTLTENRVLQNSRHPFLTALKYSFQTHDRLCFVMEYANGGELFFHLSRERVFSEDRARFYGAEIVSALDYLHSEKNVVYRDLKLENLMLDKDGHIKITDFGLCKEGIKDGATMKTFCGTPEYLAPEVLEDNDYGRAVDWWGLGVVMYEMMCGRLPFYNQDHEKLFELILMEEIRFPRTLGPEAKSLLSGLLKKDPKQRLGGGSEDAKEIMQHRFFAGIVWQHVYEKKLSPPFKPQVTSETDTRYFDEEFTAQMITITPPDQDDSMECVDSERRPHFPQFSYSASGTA
# [2] = biological target: T1, AMP-activated protein kinase, AMPK (Homo sapiens) (UniProt P54646+O43741+P54619+Q9UGJ0+Q9Y478+Q13131+Q9UGI9); experiment: Activation of AMPK in palmitate-induced insulin-resistant human HepG2 cells assessed as reduction in GLUT2 mRNA expression at 12.5 uM incubated for 24 hrs by real-time PCR method; format: cell-based
# [3] = biological target: T1, AMP-activated protein kinase, AMPK (Homo sapiens); experiment: Activation of AMPK in palmitate-induced insulin-resistant human HepG2 cells assessed as reduction in G6Pase mRNA expression at 12.5 uM incubated for 24 hrs by real-time PCR method; format: cell-based
# HepG2 [4] = experiment: Cytotoxicity in human HepG2 cells assessed as reduction in cell viability up to 12.5 uM incubated for 24 hrs by MTT assay; format: cell-based; settings: hepg2, 24 h
# [5] = biological target: T1, AMP-activated protein kinase, AMPK (Homo sapiens); experiment: Activation of AMPK in palmitate-induced insulin-resistant human HepG2 cells assessed as increase in AMPK phosphorylation at 12.5 uM incubated for 24 hrs by Western blot method; format: cell-based
# [6] = biological target: T1, AMP-activated protein kinase, AMPK (Homo sapiens); experiment: Activation of AMPK in palmitate-induced insulin-resistant human HepG2 cells assessed as reduction in GLUT2 mRNA expression at 12.5 uM incubated for 24 hrs after 1 hr pre-incubation of cells with 10 uM AMPK inhibitor compound C by real-time PCR method; format: cell-based
# [7] = biological target: RAC-alpha serine/threonine-protein kinase (Homo sapiens) (UniProt P31749); experiment: Activation of AKT in palmitate-induced insulin-resistant human HepG2 cells assessed as reduction in GLUT2 mRNA expression at 12.5 uM incubated for 24 hrs after 1 hr pre-incubation of cells with 0.5 uM AKT inhibitor […] by real-time PCR method; format: cell-based
# HepG2 [8] = experiment: Cytotoxicity in palmitate-induced insulin-resistant human HepG2 cells assessed as reduction in cell viability at 12.5 uM incubated for 24 hrs by MTT assay; format: cell-based; settings: hepg2, 24 h
# [9] = biological target: T1, AMP-activated protein kinase, AMPK (Homo sapiens); experiment: Activation of AMPK in palmitate-induced insulin-resistant human HepG2 cells assessed as reduction in G6Pase mRNA expression at 12.5 uM incubated for 24 hrs after 1 hr pre-incubation of cells with 10 uM AMPK inhibitor compound C by real-time PCR method; format: cell-based
# [10] = biological target: T1, AMP-activated protein kinase, AMPK (Homo sapiens); experiment: Activation of AMPK in palmitate-induced insulin-resistant human HepG2 cells assessed as reduction in PEPCK mRNA expression at 12.5 uM incubated for 24 hrs after 1 hr pre-incubation of cells with 10 uM AMPK inhibitor compound C by real-time PCR method; format: cell-based
# [11] = biological target: T1, AMP-activated protein kinase, AMPK (Homo sapiens); experiment: Activation of AMPK in palmitate-induced insulin-resistant human HepG2 cells assessed as reduction in PEPCK mRNA expression at 12.5 uM incubated for 24 hrs by real-time PCR method; format: cell-based
# HepG2 [12] = experiment: Stimulation of glucose consumption in palmitate-induced insulin-resistant human HepG2 cells at 12.5 uM incubated for 24 hrs by glucose oxidase based assay; format: functional, cell-based
# HepG2 [13] = experiment: Stimulation of glucose consumption in palmitate-induced insulin-resistant human HepG2 cells at 12.5 uM incubated for 24 hrs by glucose oxidase based assay relative to palmitate; format: functional
# HepG2 [14] = experiment: Cytotoxicity in human HepG2 cells assessed as reduction in cell viability at 3.125 to 50 uM incubated for 24 hrs by MTT assay; format: cell-based; settings: hepg2, 24 h
# [15] = Cytotoxicity in human HepG2 cells assessed as cell viability at 25 uM incubated for 24 hrs by MTT assay; format: cell-based; settings: read-out: Activity
# [16] = Cytotoxicity in human HepG2 cells assessed as cell viability at 50 uM incubated for 24 hrs by MTT assay; format: cell-based; settings: read-out: Activity
# [17] = biological target: RAC-alpha serine/threonine-protein kinase (Homo sapiens) (UniProt P31749); experiment: Activation of AKT in palmitate-induced insulin-resistant human HepG2 cells assessed as reduction in PEPCK mRNA expression at 12.5 uM incubated for 24 hrs after 1 hr pre-incubation of cells with 0.5 uM AKT inhibitor […] by real-time PCR method; format: cell-based
# [18] = biological target: RAC-alpha serine/threonine-protein kinase (Homo sapiens) (UniProt P31749); experiment: Activation of AKT in palmitate-induced insulin-resistant human HepG2 cells assessed as reduction in PEPCK mRNA expression at 12.5 uM incubated for 24 hrs after 1 hr pre-incubation of cells with 10 uM AMPK inhibitor compound C by real-time PCR method; format: cell-based
# [19] = biological target: RAC-alpha serine/threonine-protein kinase (Homo sapiens) (UniProt P31749); experiment: Activation of AKT in palmitate-induced insulin-resistant human HepG2 cells assessed as reduction in G6Pase mRNA expression at 12.5 uM incubated for 24 hrs after 1 hr pre-incubation of cells with 0.5 uM AKT inhibitor […] by real-time PCR method; format: cell-based
# [20] = biological target: RAC-alpha serine/threonine-protein kinase (Homo sapiens) (UniProt P31749); experiment: Activation of AKT in palmitate-induced insulin-resistant human HepG2 cells assessed as reduction in GLUT2 mRNA expression at 12.5 uM incubated for 24 hrs after 1 hr pre-incubation of cells with 10 uM AMPK inhibitor compound C by real-time PCR method; format: cell-based
# [21] = biological target: RAC-alpha serine/threonine-protein kinase (Homo sapiens) (UniProt P31749); experiment: Activation of AKT in palmitate-induced insulin-resistant human HepG2 cells assessed as reduction in G6Pase mRNA expression at 12.5 uM incubated for 24 hrs after 1 hr pre-incubation of cells with 10 uM AMPK inhibitor compound C by real-time PCR method; format: cell-based
SMILES,Activity [1],Activity [2],Activity [3],Activity (HepG2 [4]),Activity [5],Activity [6],Activity [7],Activity (HepG2 [8]),Activity [10],Activity [11],Activity (HepG2 [12]),also measured
O=c1cc(-c2ccccc2)oc2cc(O)c(O)c(O)c12 [BAICALEIN],Active,Active,Active,Non-Toxic,Active,inactive,Active,Non-Toxic,inactive,Active,Active,Activity [9]: inactive
CN(CCOc1ccc(CC2SC(=O)NC2=O)cc1)c1ccccn1 (configuration not stated) [ROSIGLITAZONE],,Active,Active,,Active,,,,,Active,Active,Activity (HepG2 [13]): 7%
O=C(O)[C@H]1O[C@@H](Oc2cc3oc(-c4ccccc4)cc(=O)c3c(O)c2O)[C@H](O)[C@@H](O)[C@@H]1O [BAICALIN],,Active,Active,,Active,inactive,,Non-Toxic,inactive,Active,Active,"Activity (HepG2 [14]): Non-Toxic; viability at 24 h, 25 µM [15]: 85%; viability at 24 h, 50 µM [16]: 85%"
COc1c(O[C@@H]2O[C@H](C(=O)O)[C@@H](O)[C@H](O)[C@H]2O)cc2oc(-c3ccccc3)cc(=O)c2c1O,,,,Non-Toxic,,,Active,Non-Toxic,,,inactive,
O=C(O)[C@H]1O[C@@H](Oc2cc3oc(-c4ccccc4)cc(=O)c3c(O)c2O[C@@H]2O[C@H](CO)[C@@H](O)[C@H](O)[C@H]2O)[C@H](O)[C@@H](O)[C@@H]1O,Active,Active,Active,Non-Toxic,Active,,Active,Non-Toxic,,Active,Active,Activity [17]: inactive; Activity [18]: Active; Activity [19]: inactive; Activity [20]: Active; Activity [21]: Active
